Measurements: ChEMBL document CHEMBL1143305, “SAR and biological evaluation of analogues of a small molecule histone deacetylase inhibitor N-(2-aminophenyl)-4-((4-(pyridin-3-yl)pyrimidin-2-ylamino)methyl)benzamide (MGCD0103)” (Bioorg Med Chem Lett, 2009)

Assays:
HCT-15 [1] = experiment: Antitumor activity against human HCT15 cells xenografted in mouse at 5 mg/kg, po administered once daily for 12 days relative to control; type: functional
HCT-15 [2] = experiment: Antitumor activity against human HCT15 cells xenografted in mouse at 10 mg/kg, po administered once daily for 12 days relative to control; type: functional
[3] = Metabolic stability in mouse microsomes assessed as biotransformation rate; type: ADME, Microsome
HMEC [4] = experiment: Selectivity ratio of IC50 for HMEC to IC50 for human HCT116 cells
Histone deacetylase 7 = target: T1, Histone deacetylase 7 (Homo sapiens, UniProt Q8WUI4); experiment: Inhibition of HDAC7
T1 sequence (Q8WUI4 whole entry): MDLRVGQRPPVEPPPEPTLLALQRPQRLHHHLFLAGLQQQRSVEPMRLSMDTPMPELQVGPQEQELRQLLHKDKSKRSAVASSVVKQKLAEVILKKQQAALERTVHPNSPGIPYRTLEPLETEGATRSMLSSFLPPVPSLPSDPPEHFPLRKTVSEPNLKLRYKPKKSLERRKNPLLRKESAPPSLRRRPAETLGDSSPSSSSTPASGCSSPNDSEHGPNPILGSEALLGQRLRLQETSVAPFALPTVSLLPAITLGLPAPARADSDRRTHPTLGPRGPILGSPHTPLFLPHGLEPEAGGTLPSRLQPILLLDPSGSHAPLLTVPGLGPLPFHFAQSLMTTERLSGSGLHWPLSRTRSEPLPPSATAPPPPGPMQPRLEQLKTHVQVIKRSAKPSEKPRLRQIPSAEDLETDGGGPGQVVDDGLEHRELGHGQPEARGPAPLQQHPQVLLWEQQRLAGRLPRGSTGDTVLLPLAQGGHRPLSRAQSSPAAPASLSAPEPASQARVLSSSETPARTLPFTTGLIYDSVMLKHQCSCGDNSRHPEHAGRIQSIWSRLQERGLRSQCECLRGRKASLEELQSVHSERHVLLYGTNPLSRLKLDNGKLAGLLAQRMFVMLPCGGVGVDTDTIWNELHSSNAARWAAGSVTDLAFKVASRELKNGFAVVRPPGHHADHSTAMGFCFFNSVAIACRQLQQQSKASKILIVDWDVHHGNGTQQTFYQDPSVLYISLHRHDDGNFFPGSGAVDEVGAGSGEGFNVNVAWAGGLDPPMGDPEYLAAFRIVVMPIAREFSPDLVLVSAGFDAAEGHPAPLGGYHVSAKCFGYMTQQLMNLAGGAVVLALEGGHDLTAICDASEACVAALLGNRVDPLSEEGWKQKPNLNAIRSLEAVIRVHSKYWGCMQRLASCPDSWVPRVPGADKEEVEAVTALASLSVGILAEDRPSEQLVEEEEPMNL

HMEC [5] = experiment: Antiproliferative activity against HMEC by MTT assay; type: cell-based; conditions: Homo sapiens
[6] = Metabolic stability in rat microsomes assessed as biotransformation rate; type: ADME, Microsome
Histone deacetylase 1 = Histone deacetylase 1 (Homo sapiens, UniProt Q13547); experiment: Inhibition of human recombinant HDAC1
[7] = Solubility at pH 1.2; type: physicochemical; conditions: buffer
NCI-H460 = experiment: Antitumor activity against human H460 cells xenografted in mouse at 20 mg/kg, po administered once daily for 12 days relative to control; type: functional
[8] = Tmax in Sprague-Dawley rat at 5 mg/kg, po up to 6 hrs; type: ADME, organism-based; set-up: dose 5 mg/kg, route oral; conditions: in vivo
[9] = Volume of distribution at steady state in Sprague-Dawley rat at 2.5 mg/kg, iv up to 6 hrs; type: ADME, organism-based; set-up: dose 2.5 mg/kg, route intravenous; conditions: in vivo, read-out: Vdss
[10] = Antitumor activity against human TSU-Pr1 cells xenografted in mouse at 10 mg/kg, po administered once daily for 12 days relative to control; type: functional
[11] = Terminal half life in Sprague-Dawley rat at 2.5 mg/kg, iv up to 6 hrs; type: ADME, organism-based; set-up: dose 2.5 mg/kg, route intravenous; conditions: in vivo, read-out: beta t1/2 (converted)
[12] = Oral bioavailability in Sprague-Dawley rat at 5 mg/kg up to 6 hrs; type: ADME, organism-based; conditions: in vivo
T-24 = experiment: Induction of histone H4 hyperacetylation in human T24 cells after 16 hrs by immunoblotting; type: functional, cell-based; conditions: T-24, 16 h
Histone deacetylase 8 = target: T2, Histone deacetylase 8 (Homo sapiens, UniProt Q9BY41); experiment: Inhibition of HDAC8
T2 sequence (Q9BY41 whole entry): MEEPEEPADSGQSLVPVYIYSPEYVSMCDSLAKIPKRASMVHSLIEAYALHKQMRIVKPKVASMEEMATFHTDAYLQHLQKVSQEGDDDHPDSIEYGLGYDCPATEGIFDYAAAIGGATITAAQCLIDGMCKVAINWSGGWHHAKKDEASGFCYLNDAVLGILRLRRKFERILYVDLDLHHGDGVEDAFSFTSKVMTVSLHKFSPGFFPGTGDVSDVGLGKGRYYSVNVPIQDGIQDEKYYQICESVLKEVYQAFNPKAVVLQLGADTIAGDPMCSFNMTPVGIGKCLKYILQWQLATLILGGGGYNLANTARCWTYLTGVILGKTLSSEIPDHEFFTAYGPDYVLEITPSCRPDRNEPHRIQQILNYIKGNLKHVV

Chain of Histone deacetylase 1 (Q13547 whole entry): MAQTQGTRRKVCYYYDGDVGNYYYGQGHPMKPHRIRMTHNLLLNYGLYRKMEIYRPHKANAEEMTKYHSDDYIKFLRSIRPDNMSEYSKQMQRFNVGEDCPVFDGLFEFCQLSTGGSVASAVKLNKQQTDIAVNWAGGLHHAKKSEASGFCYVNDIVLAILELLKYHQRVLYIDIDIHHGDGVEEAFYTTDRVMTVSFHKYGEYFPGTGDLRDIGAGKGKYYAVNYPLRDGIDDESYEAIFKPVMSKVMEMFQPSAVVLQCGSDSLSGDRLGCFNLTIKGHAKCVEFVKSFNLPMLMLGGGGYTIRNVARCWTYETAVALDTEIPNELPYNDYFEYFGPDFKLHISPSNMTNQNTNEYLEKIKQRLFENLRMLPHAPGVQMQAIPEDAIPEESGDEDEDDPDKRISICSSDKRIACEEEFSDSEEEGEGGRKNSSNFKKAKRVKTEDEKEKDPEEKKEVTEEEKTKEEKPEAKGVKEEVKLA

Structure (SMILES): Nc1ccccc1NC(=O)c1ccc(CNc2nccc(-c3ccn[nH]3)n2)cc1
- T/C (HCT-15 [1]): 79%
- T/C (HCT-15 [2]): 63%
- Activity [3]: 0.054 nmol/mg/min
- Ratio IC50 (HMEC [4]): >30
- IC50 (Histone deacetylase 7): > 20 µM
- IC50 (HMEC [5]): 24 µM
- Activity [6]: 0.043 nmol/mg/min
- IC50 (Histone deacetylase 1): 140 nM
- solubility [7]: > 1000 µg/mL
- T/C (NCI-H460): 34%
- Tmax [8]: 30 min
- Vd [9]: 0.13 L/kg
- T/C [10]: 61%
- half-life [11]: 72 min
- bioavailability [12]: 16%
- EC50 (T-24): 1000 nM
- IC50 (Histone deacetylase 8): > 10 µM
